Consider 12 compounds from patent US8877163B2, “Cycloalkyl triamine pentacarboxylate as ligands for paramagnetic metal complexes” (Kaohsiung Medical University, priority 2006, dated 2014).

The structures appear in SMILES notation. Where two headings read alike, the source gives them in different places.

Data set [1] is described as follows: Protonation constants by potentiometric titration (PKAS program). The class given is physicochemical. To be noted: for ΣpKa: sum of the four protonation constants. The protocol: Firstly, the ligands (HnL) are deprotoned (L^n−) by treating them with the alkaline solution. After that, a slow addition of the acidic solution for associating the deprotonated ligand with the protons (H^+) is performed, and thus protonated organic ligands are formed. The equation for the protonation constant is shown as follows:
Please refer to FIG. 2, which is a potentiometric titration curve for CB-TTDA (the ionic strength I=0.1 M Me4NCl and the temperature T=25.0±0.1° C.) measured by an automatic titrator system. The protonation constants for the CB-TTDA are determined from the titration data with the FORTRAN computer program PKAS as shown in Table 1.

A short description of data set [2]: Stability constants of the gadolinium complex by potentiometric titration (BEST program). The class given is physicochemical. From the text:
(§1) Presently, there are two ways for calculating the thermodynamic stability constant of a metal complex by the potentiometric titration. […] The second method is suitable for the metal complex whose disassociation rate is less than 25% at low pH (such as pH 2). Take the metal complex of the present invention for instance, since it is not able to form a complex with the ligand at a pH value around 2, the thermodynamic stability constant thereof must be calculated by the previous method. The equation for the thermodynamic stability constant is defined as follows: [formula] where M represents the metal ion, L represents the ligand, and ML represents the metal complex. […] The thermodynamic stability constants for the metal complexes with CB-TTDA are determined from the titration data with the FORTRAN computer program BEST as shown in Table 2 with the reported thermodynamic stability constants of TTDA and DTPA, which are respectively reported by Y M. Wang et al., Inorganic Chemistry, vol. 44, page 382, 2005 and by P. Caravan et al., Inorganic Chemistry, vol. 44, page 2170, 2001. The conditional stability constant (Kcond) specifies the degree of metal chelation at a given pH and is defined as follows: […] [formula] where LT is the total concentration of the uncomplexed ligand, which is defined by the following equation: […]

Data set [3] in a line: Stability constants of the calcium complex by potentiometric titration (BEST program). The class given is physicochemical.
From the text: as §1

The nature of data set [4]: Stability constants of the zinc complex by potentiometric titration (BEST program). Type of data set: physicochemical.
From the text: as §1

A short description of data set [5]: Stability constants of the copper complex by potentiometric titration (BEST program). The class given is physicochemical.
From the text: as §1

A short description of data set [6]: Selectivity constant and modified selectivity constant of the gadolinium complex. Type of data set: physicochemical. From the text:
The selectivity constant is used only for showing the difference between the gadolinium complex and other metal complexes. However, due to the coexistence of the zinc ion, the calcium ion and the copper ion in vivo, all the following factors, which are the pH value, the protonation constant for the ligand, the concentrations of the metal ions (Zn^2+, Ca^2+, Cu^2+) and the stability constants for Gd^3+, Zn^2+, Ca^2+ and Cu^2+ complexes should be considered for obtaining the selectivity constant with a new definition, called modified selectivity constant (Ksel′) and defined by the following equation: Ksel′=Ktherm(αH^−1+αCaL^−1+αCuL^−1+αZnL^−1)^−1, where αH^−1=1+K1^H[H^+]+K1^HK2^H [H^+]^++ . . .; αCaL^−1=1+KCaL[Ca^2+]; αCuL^−1=1+KCuL[Cu^2+]; αZnL^−1=1+KZnL[Zn^2+]; and thus the modified selectivity constant of the gadolinium complex at the biological pH (7.4) could be calculated by the mentioned equation (the value of the conditional stability constant is calculated previously, and the concentrations of the zinc, the calcium and the copper ions are 50 μM, […] and 1 μm, respectively).

The conditions of data set [7]: reported values; cited from earlier work.
For data set [8] the following is noted: I = 0.1 M Me4NCl, T = 25.0 ± 0.1° C.; reported values; cited from earlier work.
The conditions of data set [9]: I = 0.1 M Me4NCl, T = 25.0 ± 0.1° C.; reported values; cited from earlier work. The source holds these as a separate data set.
For data set [10] the following is noted: I = 0.1 M Me4NCl, T = 25.0 ± 0.1° C.; reported values; cited from earlier work. The source holds these as a separate data set.
For data set [11] the following is noted: I = 0.1 M Me4NCl, T = 25.0 ± 0.1° C.; reported values; cited from earlier work. This is another data set of the same source.
For data set [12], the target named is human serum albumin (Homo sapiens, UniProt P02768). To be noted: cited from earlier work.
Sequence of human serum albumin (P02768 25-609): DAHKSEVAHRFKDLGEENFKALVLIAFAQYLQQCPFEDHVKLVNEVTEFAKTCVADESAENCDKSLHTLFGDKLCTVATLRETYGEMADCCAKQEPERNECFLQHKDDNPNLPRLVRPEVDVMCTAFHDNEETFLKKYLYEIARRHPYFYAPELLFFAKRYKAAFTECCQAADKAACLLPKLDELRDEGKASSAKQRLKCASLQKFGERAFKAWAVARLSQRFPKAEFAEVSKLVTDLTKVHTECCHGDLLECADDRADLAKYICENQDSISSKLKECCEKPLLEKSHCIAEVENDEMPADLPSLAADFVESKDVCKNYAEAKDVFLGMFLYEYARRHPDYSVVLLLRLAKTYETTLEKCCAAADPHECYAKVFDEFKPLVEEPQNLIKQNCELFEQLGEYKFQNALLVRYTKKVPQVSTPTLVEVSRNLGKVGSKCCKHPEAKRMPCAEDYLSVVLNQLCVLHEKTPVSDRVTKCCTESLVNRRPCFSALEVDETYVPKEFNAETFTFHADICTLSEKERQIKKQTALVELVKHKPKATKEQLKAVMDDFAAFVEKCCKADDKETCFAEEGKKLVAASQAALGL
The nature of data set [13]: Dy (III)-induced 17O-NMR water shift (d.i.s.), number of inner space water molecules. The class given is physicochemical. From the text: From measuring the d.i.s. (Dy (III)-induced ^17O-NMR water shifts) of the ^17O nuclides in water induced by Dy (III) via ^17O-NMR and graphing the concentration of Dy (III) complexes with respect to the d.i.s., a linear relationship is found, as shown in the following equation: d.i.s.=qΔ[Dy(ligand)n(H2O)q/[H2O]
The slope is qΔ/[H2O] with q being the number of inner space water molecule. […] Because the Dy (III) hydrate is able to combine with 8 water molecules and is in direct proportion to the slope, the value of q (q=0.9) for [Dy(CB-TTDA)]^2− is obtained thereby.

For data set [14] the following is noted: cited from earlier work.
The conditions of data set [15]: incubation with zinc (II) for three days; 20 MHz, 37.0 ± 0.1° C.; reported by S. Laurent et al; cited from earlier work.
The conditions of data set [16]: 20 MHz, 37.0 ± 0.1° C., pH 7.5 ± 0.1; Y. M. Wang et al.; cited from earlier work.
Setting [17] is: I = 0.1 M Me4NCl, T = 25.0 ± 0.1° C.

Turning to `O=C(O)CN(CCN(CC(=O)O)CC1(CN(CC(=O)O)CC(=O)O)CCC1)CC(=O)O` [CB-TTDA, 6-carboxymethyl-3-{{[1-(N,N-dicarboxymethyl)-2-aminomethyl]-cyclobut-1-yl}-methyl}-3,6-diazaoctanedioic acid], in data set [1] (setting [17]), the “log Kn^H [H4L]/[H3L][H]” value is recorded as 3.11(0.04) and the “log Kn^H [HL]/[L][H]” value is given as 11.08(0.03). The same compound gave a ΣpKa in [1] of 28.59. In data set [2], the “log KML [GdL]/[Gd][L] (thermodynamic stability constant)” value (“log KML [GdL]/[Gd][L]” below) is on record as 20.28(0.03) and the pGd is given as 15.82. Also, in [3], the pCa was found to be 4.09 and the “log KCaL (pH = 7.4) (conditional stability constant)” value (shortened to “log KCaL”) was 4.06. Moreover, in [3] (setting [17]), the “log KCaHL” value is on record as 6.24(0.02) and the “log KML [CaL]/[Ca][L]” value was 9.52(0.02). Besides, in [4], the pZn worked out at 12.41 and the “log KZnL (pH = 7.4) (conditional stability constant)” value (from here on “log KZnL”) is recorded as 10.60. In data set [4] (setting [17]), the “log KML [ZnL]/[Zn][L]” value is 16.06(0.03) and the “log KZnHL” value is 8.13(0.04). Besides, in data set [5], the pCu was found to be 13.26 and the “log KCuL (pH = 7.4) (conditional stability constant)” value (“log KCuL” for short) stood at 12.25. In addition, in data set [5] (setting [17]), the “log KCuHL” value is reported as 5.29(0.03) and the “log KML [CuL]/[Cu][L]” value is 17.71(0.02). Moreover, in data set [6], the “log K(Gd/Ca) (selectivity constant)” value came to 11.76, the “log K(Gd/Cu) (selectivity constant)” value is listed as 2.57 and the “log K(Gd/Zn) (selectivity constant)” value is listed as 4.22.
As to `O=C(O)CN(CCN(CC(=O)O)CC(=O)O)CCN(CC(=O)O)CC(=O)O` [DTPA], in data set [1], the ΣpKa was found to be 26.01. In [2], the pGd amounted to 19.14. Also, in data set [3], the pCa is reported as 7.46 and the “log KCaL” value is reported as 6.43. In data set [4], the pZn amounted to 15.39 and the “log KZnL” value came to 14.38. For the same compound, in data set [5], the pCu turned out to be 18.06 and the “log KCuL” value was 17.00. Also, in data set [6], the “log K(Gd/Ca) (selectivity constant)” value is recorded as 11.71, the “log K(Gd/Cu) (selectivity constant)” value is recorded as 1.08 and the “log K(Gd/Zn) (selectivity constant)” value is 3.76. Besides, in [7], the “log Kn^H [H2L]/[HL][H]” value is recorded as 8.60, the “log Kn^H [H3L]/[H2L][H]” value is on record as 4.28, the “log Kn^H [H4L]/[H3L][H]” value was 2.64 and the “log Kn^H [HL]/[L][H]” value is on record as 10.49. Moreover, the “log KML [GdL]/[Gd][L]” value in data set [8] is recorded as 22.46. Besides, in data set [9], the “log KCaHL” value was 6.11 and the “log KML [CaL]/[Ca][L]” value is given as 10.75. Also, in data set [10], the “log KML [ZnL]/[Zn][L]” value is 18.70 and the “log KZnHL” value is listed as 5.60. Further, in [11], the “log KCuHL” value was 4.81 and the “log KML [CuL]/[Cu][L]” value was 21.38.
Take `O=C([O-])CN(CCN(CC(=O)[O-])C[C@H](COP(=O)([O-])OC1CCC(c2ccccc2)(c2ccccc2)CC1)N(CC(=O)[O-])CC(=O)[O-])CC(=O)[O-].[Gd+3].[H+].[H+].[H+]` [MS-325]: the “bound relaxivity r1^b” value in data set [12] (bound to HSA) was 47.0 mM⁻¹ s⁻¹. Also, in data set [12] (bound to human serum albumin), the “relaxivity for the combination with human serum albumin” value was 47.0 mM⁻¹ s⁻¹. Besides, the “binding constant with HSA, KA” value in [12] is listed as 3.0±0.2×10^4 M^−1.
`O=C(O)CN(CCCN(CC(=O)O)CC(=O)O)CCN(CC(=O)O)CC(=O)O` [TTDA, 3,6,10-tri-(carboxymethyl)-3,6,10-triazadodecanedioic acid]: the ΣpKa in data set [1] was found to be 27.44. The same compound registered a pGd in [2] of 15.25. In data set [3], the pCa was 6.28 and the “log KCaL” value came to 4.42. Besides, in data set [4], the pZn was 12.86 and the “log KZnL” value stood at 11.32. Besides, in data set [5], the pCu was found to be 13.06 and the “log KCuL” value was determined as 12.06. Besides, in [6], the “log K(Gd/Ca) (selectivity constant)” value is 9.83, the “log K(Gd/Cu) (selectivity constant)” value was 2.19 and the “log K(Gd/Zn) (selectivity constant)” value came out at 2.93. In addition, in data set [7], the “log Kn^H [H2L]/[HL][H]” value is 8.92, the “log Kn^H [H3L]/[H2L][H]” value is listed as 5.12, the “log Kn^H [H4L]/[H3L][H]” value is 2.80 and the “log Kn^H [HL]/[L][H]” value is 10.60. Further, the “log KML [GdL]/[Gd][L]” value in data set [8] is on record as 18.96. Moreover, in data set [9], the “log KCaHL” value is 8.20 and the “log KML [CaL]/[Ca][L]” value was 9.13. Besides, in [10], the “log KML [ZnL]/[Zn][L]” value is 16.03 and the “log KZnHL” value is 7.80. Moreover, in data set [11], the “log KCuHL” value was 5.69 and the “log KML [CuL]/[Cu][L]” value was 16.77.
Turning to `O=C([O-])CN(CC(=O)[O-])CC1(CN(CCN(CC(=O)O)CC(=O)O)CC(=O)O)CCC1.[Ca+2]` [[Ca(CB-TTDA)]^3−], the “log KML [CaL]/[Ca][L]” value in data set [3] (setting [17]) is on record as 9.52.
For the compound `O=C([O-])CN(CCN(CC(=O)[O-])CC1(CN(CC(=O)[O-])CC(=O)[O-])CCC1)CC(=O)[O-].[Cu+2]` [[Cu(CB-TTDA)]^3−], in [5] (setting [17]), the “log KML [CuL]/[Cu][L]” value came to 17.71.
With `O=C([O-])CN(CCN(CC(=O)[O-])CC1(CN(CC(=O)[O-])CC(=O)[O-])CCC1)CC(=O)[O-].[Dy+3]` [[Dy(CB-TTDA)]^2−], in data set [13] (17O-NMR), the “slope of d.i.s. versus concentration of Dy (III) complex” value is on record as −48.2 ppm/mM. The “q, number of inner space water molecule” value in data set [13] (from slope relative to Dy (III) hydrate with 8 water molecules) was 0.9.
`CC1(N(CC(=O)[O-])CC(=O)[O-])CN(CC(=O)[O-])CCN(CC(=O)[O-])C1.[Gd+3]` [[Gd(AAZTA)]^−]: in data set [14] (20 MHz and 298 K), the relaxivity is 7.1 mM⁻¹ s⁻¹. In addition, the “relaxivity calculated by simulating the NMRD profile” value in [14] (τr increased to 30 ns) was 100 mM⁻¹ s⁻¹.
On to `CNC[C@H](O)[C@@H](O)[C@H](O)[C@H](O)CO.CNC[C@H](O)[C@@H](O)[C@H](O)[C@H](O)CO.O=C([O-])CN(CCN(CC(=O)[O-])CC(=O)O)CCN(CC(=O)O)C(COCc1ccccc1)C(=O)[O-].[Gd+3]` (stereo not drawn) [[Gd(BOPTA)]^2−, gadobenate dimeglumine], for which the relaxivity in data set [14] (Fulvio U. et al., 1995) was 4.39 mM⁻¹ s⁻¹.
With `CNC(=O)CN(CCN(CCN(CC(=O)[O-])CC(=O)NC)CC(=O)[O-])CC(=O)[O-].[Gd+3]` [[Gd(DTPA-BMA)], bis-methylamide gadodiamide injection], the “R1^p (t = 3days)/R1^p (t = 0 days)” value in data set [15] is given as 9%.
As for `O=C([O-])CN(CCCN(CC(=O)[O-])CC(=O)[O-])CCN(CC(=O)[O-])CC(=O)[O-].[Gd+3]` [[Gd(TTDA)]^2−], the “calculated conditional stability constant of the gadolinium complex” value in data set [2] is on record as 14.25. The “relaxivity r1” value in [16] is 3.85 ± 0.03 mM⁻¹ s⁻¹.
`O=C([O-])CN(CC(=O)[O-])CC1(CN(CCN(CC(=O)O)CC(=O)O)CC(=O)O)CCC1.[Zn+2]` [[Zn(CB-TTDA)]^3−]: in data set [4] (setting [17]), the “log KML [ZnL]/[Zn][L]” value is recorded as 16.06.
